From ChEMBL document CHEMBL1201862, “PubChem BioAssay data set” (2004)
Activity calls are given as the source filed them.

Columns and labels:
[1] = biological target: Voltage-gated inwardly rectifying potassium channel KCNH2 (Homo sapiens, UniProt Q12809); assay: concentration-dependent hERG rescue from blockers – cell-based, thallium flux, dose response (AID 2121); assay type: ADME
[2] = biological target: FAD-linked sulfhydryl oxidase ALR (Homo sapiens, UniProt P55789); assay: ALR-catalysed DTT oxidation blockers – biochemical, H2O2 detection, luminescence, cherry-pick, dose response (AID 493248)
Sequence of FAD-linked sulfhydryl oxidase ALR (P55789 whole entry): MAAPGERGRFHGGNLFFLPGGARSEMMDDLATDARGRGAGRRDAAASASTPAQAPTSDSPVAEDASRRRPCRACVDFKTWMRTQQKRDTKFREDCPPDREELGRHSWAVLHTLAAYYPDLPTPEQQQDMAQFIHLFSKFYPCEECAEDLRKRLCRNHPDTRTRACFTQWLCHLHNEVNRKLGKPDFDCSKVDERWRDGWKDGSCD

[3] = HIV-1 Vif–A3G interaction blockers – biochemical, TR-FRET, GST-Vif 1-94, biotin-A3G peptide, dose response retest, primary screen (AID 1117319); assay type: functional;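 note: TR-FRET signal of purified GST-Vif binding a biotinylated A3G peptide; inhibitors lower the FRET signal by blocking Vif and A3G binding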
[4] = biological target: T1, Rac GTPase-activating protein 1 (Homo sapiens, UniProt Q9H0H5); assay: blockers of MgcRacGAP-driven Rac1 GTP hydrolysis – biochemical, ADP Hunter fluorescence, primary and confirmatory, confirmation (AID 624330); assay type: functional
T1 sequence (Q9H0H5 whole entry): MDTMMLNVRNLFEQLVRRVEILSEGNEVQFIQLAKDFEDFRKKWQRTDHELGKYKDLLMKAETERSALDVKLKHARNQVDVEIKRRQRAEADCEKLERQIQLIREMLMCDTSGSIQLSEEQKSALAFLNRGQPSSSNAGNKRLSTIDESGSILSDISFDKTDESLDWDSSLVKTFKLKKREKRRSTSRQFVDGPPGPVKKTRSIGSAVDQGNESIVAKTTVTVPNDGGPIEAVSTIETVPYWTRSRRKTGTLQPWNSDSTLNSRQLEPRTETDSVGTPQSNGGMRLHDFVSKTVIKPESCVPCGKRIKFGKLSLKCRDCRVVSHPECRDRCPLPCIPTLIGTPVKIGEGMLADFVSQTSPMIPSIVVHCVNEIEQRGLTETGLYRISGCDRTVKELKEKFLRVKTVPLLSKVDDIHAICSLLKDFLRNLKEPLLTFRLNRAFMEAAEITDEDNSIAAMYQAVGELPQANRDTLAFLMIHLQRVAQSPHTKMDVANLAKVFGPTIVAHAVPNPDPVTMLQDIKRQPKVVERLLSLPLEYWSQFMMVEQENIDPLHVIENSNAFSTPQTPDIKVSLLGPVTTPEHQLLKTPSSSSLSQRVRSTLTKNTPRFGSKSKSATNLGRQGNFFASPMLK

[5] = biological target: RNA-editing ligase 1, mitochondrial (Trypanosoma brucei brucei, UniProt P86926); assay: inhibition of trypanosome RNA editing ligase – biochemical, fluorescence, Trypanosoma brucei, dose response (AID 1117295); assay type: functional
Sequence of RNA-editing ligase 1, mitochondrial (P86926 whole entry): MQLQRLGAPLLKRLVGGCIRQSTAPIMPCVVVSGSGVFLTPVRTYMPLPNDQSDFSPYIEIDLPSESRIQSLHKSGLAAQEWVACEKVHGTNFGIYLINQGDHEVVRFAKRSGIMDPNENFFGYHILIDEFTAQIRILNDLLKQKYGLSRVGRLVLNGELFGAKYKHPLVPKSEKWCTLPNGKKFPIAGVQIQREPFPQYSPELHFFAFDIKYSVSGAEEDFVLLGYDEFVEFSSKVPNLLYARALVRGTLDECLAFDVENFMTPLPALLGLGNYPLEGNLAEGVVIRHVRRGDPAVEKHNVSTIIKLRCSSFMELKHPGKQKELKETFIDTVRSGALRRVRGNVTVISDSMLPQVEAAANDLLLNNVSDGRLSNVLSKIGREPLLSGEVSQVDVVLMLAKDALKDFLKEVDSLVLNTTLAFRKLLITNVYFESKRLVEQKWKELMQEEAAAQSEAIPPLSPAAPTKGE

[6] = biological target: T2, Low molecular weight phosphotyrosine protein phosphatase (Homo sapiens, UniProt P24666); assay: inhibition of LMPTP-A enzymatic activity – biochemical, OMFP substrate, fluorescence intensity, set 2, dose response (AID 743307); assay type: functional
T2 sequence (P24666 whole entry): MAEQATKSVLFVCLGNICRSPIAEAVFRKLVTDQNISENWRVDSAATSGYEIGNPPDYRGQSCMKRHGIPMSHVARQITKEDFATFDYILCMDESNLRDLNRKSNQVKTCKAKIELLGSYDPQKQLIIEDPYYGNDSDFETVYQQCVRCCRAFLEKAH

[7] = biological target: T2, Low molecular weight phosphotyrosine protein phosphatase; assay: inhibition of human LMPTP enzyme activity – biochemical, absorbance, pNPP substrate, LMPTP-A isoform, set 2, orthogonal assay, dose response (AID 743308); assay type: functional

Sequence of Voltage-gated inwardly rectifying potassium channel KCNH2 (Q12809 whole entry): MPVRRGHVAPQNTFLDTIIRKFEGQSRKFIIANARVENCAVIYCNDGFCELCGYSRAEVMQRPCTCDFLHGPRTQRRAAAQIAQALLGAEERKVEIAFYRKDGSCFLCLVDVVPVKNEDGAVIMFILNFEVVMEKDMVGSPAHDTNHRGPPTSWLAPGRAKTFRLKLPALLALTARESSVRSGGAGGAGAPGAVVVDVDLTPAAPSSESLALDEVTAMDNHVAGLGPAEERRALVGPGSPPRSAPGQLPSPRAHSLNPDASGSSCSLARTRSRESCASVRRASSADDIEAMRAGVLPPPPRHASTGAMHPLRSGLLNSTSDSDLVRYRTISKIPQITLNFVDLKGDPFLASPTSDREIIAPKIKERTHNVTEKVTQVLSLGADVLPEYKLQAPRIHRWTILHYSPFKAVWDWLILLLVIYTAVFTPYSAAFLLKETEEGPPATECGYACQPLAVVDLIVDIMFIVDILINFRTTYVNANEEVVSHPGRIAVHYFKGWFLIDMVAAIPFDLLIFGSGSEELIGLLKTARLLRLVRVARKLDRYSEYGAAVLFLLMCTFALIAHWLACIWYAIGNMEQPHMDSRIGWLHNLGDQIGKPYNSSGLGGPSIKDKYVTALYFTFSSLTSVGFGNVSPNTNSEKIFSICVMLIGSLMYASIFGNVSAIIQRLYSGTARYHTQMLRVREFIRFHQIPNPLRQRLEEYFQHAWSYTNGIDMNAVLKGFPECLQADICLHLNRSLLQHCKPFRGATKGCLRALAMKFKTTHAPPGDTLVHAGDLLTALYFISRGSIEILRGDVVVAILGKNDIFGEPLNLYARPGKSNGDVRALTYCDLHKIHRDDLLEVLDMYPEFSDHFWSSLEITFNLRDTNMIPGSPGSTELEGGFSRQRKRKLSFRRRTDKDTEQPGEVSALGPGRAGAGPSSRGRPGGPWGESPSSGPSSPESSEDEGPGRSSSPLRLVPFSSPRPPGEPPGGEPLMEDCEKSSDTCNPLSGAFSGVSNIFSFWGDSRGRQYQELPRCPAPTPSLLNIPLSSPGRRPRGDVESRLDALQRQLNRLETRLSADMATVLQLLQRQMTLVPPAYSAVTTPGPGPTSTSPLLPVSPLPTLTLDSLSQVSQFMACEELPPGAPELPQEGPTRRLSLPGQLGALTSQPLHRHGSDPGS

Row | SMILES | IC50 [5] | IC50 [6] | IC50 [7] | other results
1 | COc1ccc(OC)c(NC(=O)C(=O)NNC(=O)c2cccs2)c1 | – | – | – | EC50 [1]: 3.5 µM (active)
2 | COc1cc(/C=N/NC2=NC(=O)C(c3ccccc3)S2)ccc1O (stereo not given) | – | – | – | AC50 [2]: 0.249 µM (active); IC50 [3]: > 100 µM (active); IC50 [4]: 44.3 µM (active)
3 | CCNC1=NC(c2ccccc2C(F)(F)F)C(C(=O)OC)=C(C)N1Cc1ccc(C(F)(F)F)cc1 (stereo not given) | > 96.6 µM (inactive) | – | – | –
4 | Clc1cccc(-c2cc(NCCCN3CCCCC3)c3ccccc3n2)c1 | – | 1.12 µM (active) | 1.85 µM (active) | –
5 | COC(=O)C1=C(C)N(Cc2ccc(C(F)(F)F)cc2)C(NCc2ccc3c(c2)OCO3)=NC1c1ccccc1C(F)(F)F (stereo not given) | > 96.6 µM (inactive) | – | – | –
6 | CC(C)CNc1nc(-c2ccccc2)nc2ccccc12 | – | 14.5 µM (active) | 58.5 µM (inactive) | –
